Experimental data published in PMC3445454, “Broad and Cross-Clade CD4^+ T-Cell Responses Elicited by a DNA Vaccine Encoding Highly Conserved and Promiscuous HIV-1 M-Group Consensus Peptides” (PLoS ONE, 2012).
Changes are numbered by the printed parent chain. Like-named read-outs stand apart in the source and are kept apart here. Ends that are not written are not given here.

Experiments:
Test in all cases: biochemical
HLA-DR DRB1*01:01 = HLA-DR DRB1*01:01 (Homo sapiens, UniProt P01903+P01911, A100R/D57E/F55L/F60I/F76Y/I96L/L162R/M171V/P40L/Q125E/R42F/V115G/Y59C); type: binding
HLA-DR DRB1*04:01 = HLA-DR DRB1*04:01 (Homo sapiens, UniProt P01903+P01911, A100K/A169T/F76Y/I96L/K127E/L162R/M171V/N62H/P40V/Q125Y/R42H/S133A/S149N/S66Y/V115G/V209L/W38E); type: binding
HLA-DR DRB1*07:01 = HLA-DR DRB1*07:01 (Homo sapiens, UniProt P01903+P01911, A100R/A102G/A103Q/D57E/D86V/E43K/F76Y/K127E/L162R/M171V/P40G/Q125H/Q99D/R33Q/R42Y/R54Q/S133A/S66F/T210M/V115G/Y107V/Y59L/Y89S); type: binding
HLA-DR DRB1*08:02 = HLA-DR DRB1*08:02 (Homo sapiens, UniProt P01903+P01911, A100R/A103L/A169T/F76Y/H45Y/I96F/K41T/L162R/M171V/P40S/Q125H/Q178H/Q39Y/Q99D/R218S/R42G/S66Y/V115G/W38E); type: binding
HLA-DR DRB1*10:01 = HLA-DR DRB1*10:01 (Homo sapiens, UniProt P01903+P01911, A100R/A169T/D57E/F55L/F60V/F69Y/F76Y/I96L/L162R/M171V/P40V/Q260P/Q39E/Q99R/R195Q/R42F/S149N/S66Y/T210M/V115G/V67A/W38E/Y59R/Y61H); type: binding
HLA-DR DRB3*01:01 = HLA-DR DRB3*01:01 (Homo sapiens, UniProt P01903+P79483); type: binding
[1] = target: T1, HLA-DP DPA1*01:03/DPB1*03:01 (Homo sapiens, UniProt P04440+P20036, A65V/A84D/A85E/E86D/F38Y/G113D/G114E/G40L/I94L/L37V/M105V/M116V/P115A/R125K/T199I); type: binding
T1 sequence (P20036 29-260): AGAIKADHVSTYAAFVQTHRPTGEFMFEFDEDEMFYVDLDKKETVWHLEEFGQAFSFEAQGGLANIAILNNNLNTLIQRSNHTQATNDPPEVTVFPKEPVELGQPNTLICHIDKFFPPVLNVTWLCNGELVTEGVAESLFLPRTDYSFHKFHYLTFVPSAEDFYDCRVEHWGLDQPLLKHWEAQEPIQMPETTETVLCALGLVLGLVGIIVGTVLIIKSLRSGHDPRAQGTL
T1 sequence (P04440 30-258 L37V/F38Y/G40L/A65V/A84D/A85E/E86D/I94L/M105V/G113D/G114E/P115A/M116V/R125K/T199I): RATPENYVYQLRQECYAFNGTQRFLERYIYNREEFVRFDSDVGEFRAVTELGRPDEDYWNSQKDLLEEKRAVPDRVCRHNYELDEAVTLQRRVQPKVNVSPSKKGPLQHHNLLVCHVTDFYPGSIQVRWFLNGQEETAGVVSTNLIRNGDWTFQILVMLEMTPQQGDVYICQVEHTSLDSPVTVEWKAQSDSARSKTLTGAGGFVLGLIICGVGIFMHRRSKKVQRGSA

[2] = target: T2, HLA-DP DPA1*01:03/DPB1*20:01 (Homo sapiens, UniProt P04440+P20036, A65V/A84D/A85E/E86D/F38Y/G113D/G114E/G40L/I94L/L37V/M116V/P115A/R125K/T199I); type: binding
T2 sequence (P20036 29-260): T1 sequence (P20036 29-260)
T2 sequence (P04440 30-258 L37V/F38Y/G40L/A65V/A84D/A85E/E86D/I94L/G113D/G114E/P115A/M116V/R125K/T199I/V234M): T1 sequence (P04440 30-258 L37V/F38Y/G40L/A65V/A84D/A85E/E86D/I94L/M105V/G113D/G114E/P115A/M116V/R125K/T199I) with V76M, V205M

[3] = target: HLA-DP DPA1*02:01/DPB1*01:01 (Homo sapiens, UniProt P04440+P20036, F191V/F38Y/F64Y/G113D/G114E/K142R/L158P/L37V/M105V/M116V/M62Q/P115A/Q81R/R125K/R223Q/T114A/T199I/T259P)
Chain of HLA-DP DPA1*02:01/DPB1*01:01 (P20036 29-260 A42M/M62Q/Q81R/T114A/K142R/L158P/F191V/T259P, other chains not shown): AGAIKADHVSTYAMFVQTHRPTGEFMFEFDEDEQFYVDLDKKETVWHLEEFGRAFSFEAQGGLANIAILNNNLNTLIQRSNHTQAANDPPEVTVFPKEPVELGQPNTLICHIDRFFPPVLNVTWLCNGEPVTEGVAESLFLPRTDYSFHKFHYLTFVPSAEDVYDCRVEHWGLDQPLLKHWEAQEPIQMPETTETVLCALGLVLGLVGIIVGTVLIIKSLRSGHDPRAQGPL

[4] = target: HLA-DP DPA1*03:01/DPB1*04:02 (Homo sapiens, UniProt P04440+P20036, A42M/A65V/A84D/A85E/L207M/L97S)
HLA-DR DRB1*13:02 = HLA-DR DRB1*13:02 (Homo sapiens, UniProt P01903+P01911, A100E/A169T/K41T/L162R/M171V/P40S/Q125H/Q178H/Q39Y/Q99D/R42S/S66N/T262R/V115G/W38E/Y61H); type: binding
Chain of HLA-DR DRB1*13:02 (P01903 26-254 limits assumed, other chains not shown): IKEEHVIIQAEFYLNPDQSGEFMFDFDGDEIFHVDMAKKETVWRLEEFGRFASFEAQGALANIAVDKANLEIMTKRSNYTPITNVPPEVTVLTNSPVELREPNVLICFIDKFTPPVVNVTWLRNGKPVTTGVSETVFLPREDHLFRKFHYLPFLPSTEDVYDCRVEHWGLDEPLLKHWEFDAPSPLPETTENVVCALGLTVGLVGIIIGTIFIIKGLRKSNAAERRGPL

[5] = read-out: Binding capacity/IC50 (nM) DRB1*01:01
[6] = read-out: Binding capacity/IC50 (nM) DRB1*07:01
[7] = read-out: Binding capacity/IC50 (nM) DRB1*08:02
[8] = read-out: Binding capacity/IC50 (nM) DRB1*13:02
[9] = read-out: Binding capacity/IC50 (nM) DRB3*01:01
[10] = read-out: Binding capacity/IC50 (nM) DPA1*01:03 DPB1*03:01
[11] = read-out: Binding capacity/IC50 (nM) DPA1*01:03 DPB1*20:01
[12] = read-out: Binding capacity/IC50 (nM) DRB1*04:01
[13] = read-out: Binding capacity/IC50 (nM) DRB1*10:01

| Substance | IC50 (HLA-DR DRB1*01:01) [nM] | IC50 (HLA-DR DRB1*04:01) [nM] | IC50 (HLA-DR DRB1*07:01) [nM] | IC50 (HLA-DR DRB1*08:02) [nM] | IC50 (HLA-DR DRB1*10:01) [nM] | IC50 (HLA-DR DRB3*01:01) [nM] | IC50 [1] [nM] | IC50 [2] [nM] | IC50 [3] [nM] | IC50 [4] [nM] | IC50 (HLA-DR DRB1*01:01; [5]) [nM] | IC50 (HLA-DR DRB1*07:01; [6]) [nM] | IC50 (HLA-DR DRB1*08:02; [7]) [nM] | IC50 (HLA-DR DRB1*13:02; [8]) [nM] | IC50 (HLA-DR DRB3*01:01; [9]) [nM] | IC50 [1, 10] [nM] | IC50 [2, 11] [nM] | IC50 (HLA-DR DRB1*04:01; [12]) [nM] | IC50 (HLA-DR DRB1*10:01; [13]) [nM] | IC50 (HLA-DR DRB1*13:02) [nM] |
| --- | --- | --- | --- | --- | --- | --- | --- | --- | --- | --- | --- | --- | --- | --- | --- | --- | --- | --- | --- | --- |
| EAVRHFPRPWLHGL-NH2 [vpr(29-42)] | 71 | 1290 | 1390 | 130 | 311 | 7870 | 11 | 31 | 8610 | 139 | – | – | – | – | – | – | – | – | – | – |
| IRYPLTFGWCFKLVPVDPREVEEA-NH2 [nef(133-156)] | – | – | – | – | – | – | – | – | 249 | 670 | 315 | 472 | 2160 | 4290 | 3440 | 5360 | 13000 | – | – | – |
| IVALIIAIVVWTIV-NH2 [vpu(13-26)] | – | – | – | – | – | – | – | – | 26100 | 1300 | 261 | > 30000 | 765 | > 30000 | – | 2580 | 5810 | 19600 | 1780 | – |
| LNKIVRMYSPVSILDI-NH2 [p24(138-153)] | – | – | – | – | – | – | – | – | 26 | 1 | – | – | 3.1 | – | – | 16 | 3 | – | 6.6 | – |
| NYPIVQNLQGQMVHQAISPR-NH2 [p17(131-132)/p24(1-18)] | – | – | – | – | – | 517 | – | – | 2870 | 484 | 4.4 | 5420 | 71 | – | – | 344 | 952 | 83 | 59 | – |
| VGSLQYLALTALITPKK-NH2 [vif(142-158)] | 0.35 | 6.4 | 4.1 | 25 | – | – | 74 | 262 | 115 | 1.5 | – | – | – | – | 942 | – | – | – | – | 7.1 |
| YAKMRSAHTNDVKQL-NH2 [RT(354-368)] | – | – | – | – | – | – | 11900 | – | 4430 | 6960 | – | 120 | 2.1 | 74 | – | – | 202 | 79 | 16 | – |
